Measurements as given in US9447062B2, “Manumycin-type metabolite called Colabomycin E which inhibits caspase 1 and creation of interleukins, strain produces the Colabomycin E and a method of a production of the Colabomycin E” (BIOLOGY CENTRE AS CR, v. v. i., priority 2014, dated 2016).

What was measured:
[1] = tested on: IL-1β release from THP-1 cells (caspase 1); test: IL-1β release from TNFα-stimulated THP-1 cells; assay type: cell-based, human; details: for concentration at which the dose curve reached an inhibitory plateau (IL-1β release) / concentration from which IL-1β release is significantly inhibited: TNFα 50 ng/ml
Method: (§1) Antibacterial activity of colabomycin E was tested by disc diffusion method. The strains were cultivated on MH agar plates at 36° C., aerobically for 18 hrs. For streptococci the media was supplemented with 5% sheep blood and the bacteria were cultivated aerobically for 20 hrs in 5% CO2. Colabomycin E samples dissolved in dioxane were applied to standard 6 mm discs; therefore zone diameters below 7 mm indicate no growth inhibition. The anti-inflammatory effect of colabomycin E was assayed on the TNFα-stimulated human monocyte/macrophage cell line THP-1. The cells were cultured in RPMI-1640 medium, supplemented with 10% heat inactivated fetal calf serum (FCS), L-glutamine, penicillin and streptomycin. Cells were seeded into 6-well tissue culture plates at a density of 2×10^6 cells per 2 ml per well and cultured under a 5% CO2 atmosphere at 37° C. THP-1 cells were stimulated with TNFα (50 ng/ml) under serum free conditions in the presence of colabomycin or manumycin A.
Unstimulated cells were used as controls. IL-1β release was measured through flow cytometry in culture supernatants by Fluorokine MAP human base kit A using the Luminex^100 System. In the first step, 50 μl of the samples/standards were incubated with 50 μl of microparticles for 3 hours at RT on a horizontal orbital microplate shaker. After washing the unbound substances, 50 μl of the secondary antibodies conjugated with biotin was added to each well and incubated the samples/standards for another 1 hour. After the incubation, the unbound secondary antibodies were washed and 50 μl of the Streptavidin-PE was added. After the 30 minutes of incubation, the samples/standards were washed and resuspended the microparticles in 100 μl of wash buffer. Samples/standards were read using a Luminex analyzer.

[2] = tested on: Gram^+ bacteria, mainly staphylococci and streptococci; test: Antibacterial activity, disc diffusion method; assay type: cell-based
Method: (§2) FIG. 10: Antibacterial features of colabomycin E—disc diffusion method. Colabomycin E samples were applied to standard 6 mm discs; therefore the zone diameters bellow 7 mm mean no growth inhibition. The strains kindly provided by the Czech National Collection of Type Cultures.
as §1

Gram^− = test: Antibacterial activity, disc diffusion method; assay type: cell-based
Method: as §2, §1

[3] = tested on: human leukemic Jurkat cells; test: Pro-apoptotic features, Annexin V-FITC flow cytometry; assay type: cell-based; details: 4 hours
Method: Proapoptotic features were assayed using human Jurkat cells. The cells were cultivated in RPMI medium supplemented with 10% FBS and antibiotics. Just before experiments cells were plated into the fresh medium at 4×10^5 cells/ml in 24-well cultivation plates. They were treated with increasing concentrations of manumycin A (positive control) and colabomycin E for 4 hours. Cells were then harvested by centrifugation and apoptotic cells were labeled by Annexin V-FITC. The stained cells were subsequently analyzed by flow cytometry analysis in a Guava EasyCyte flow cytometer and the obtained data were evaluated using FlowJo software.)

[4] = tested on: IL-6 production in THP-1 cells; test: IL-6 production in THP-1 cells stimulated with TNFα; assay type: cell-based, human; details: 0.5 μM
Method: as §1

[5] = tested on: IL-8 production in THP-1 cells; test: IL-8 production in THP-1 cells stimulated with TNFα; assay type: cell-based, human; details: 0.5 μM
Method: as §1

[6] = tested on: IL-18 production in THP-1 cells; test: IL-18 production in THP-1 cells stimulated with TNFα; assay type: cell-based, human; details: 0.5 μM
Method: as §1

Row | Compound | concentration at which the dose curve reached an inhibitory plateau (IL-1β release) [1] [µM] | concentration from which IL-1β release is significantly inhibited [1] [µM] | anti-bacterial effects (overall) [2] | growth of Gram+ bacteria ([2]; in higher concentrations) | effect on Gram− bacteria (Gram^−) | pro-apoptotic features ([3]; 5 μM) | pro-apoptotic effect relative to manumycin A [3] | IL-1β release from THP-1 cells [1] | IL-6 production [4] | IL-8 production [5] | IL-18 production [6]
1 | CCCC[C@@H](C)/C=C(C)/C=C(\C)C(=O)NC1=C[C@@](O)(/C=C/C=C/C=C/C(=O)NC2=C(O)CCC2=O)[C@@H]2O[C@@H]2C1=O [manumycin A, reference compound] | 0.5 | 0.25 | – | – | – | – | – | – | – | – | –
2 | Colabomycin E | 0.5 | 0.25 | quite mild | suppresses growth | no effect | weak pro-apoptotic features | substantially weaker | significantly inhibited | inhibit | inhibit | inhibit
